# Results reported in paper PMC10496123, “Potent Antifungal Activity of Penta-O-galloyl-β-D-Glucose against Drug-Resistant Candida albicans, Candida auris, and Other Non-albicans Candida Species” (ACS Infectious Diseases, 2023).
# Several values for one entry are separate records, joined by “and”; a condition that tells them apart may be missing. Identical values can stand only once.
# Columns and labels:
# C. albicans [1] = test: Ergosterol binding assay (growth inhibition with exogenous ergosterol); assay type: cell-based, Candida albicans; conditions: 80 μg mL^–1 exogenous ergosterol, 1×–4× MIC, 24 h
# Protocol: Ergosterol binding was measured using a previously described method,[60] with some modifications. Briefly, ergosterol (TCI) was pulverized with a sterile pestle and mortar and then dissolved in 100% ethanol. The resultant emulsion was warmed at 37 °C for 15 min and then sonicated for 45 min prior to use. […] The negative control was untreated culture. A media blank was used to monitor for contamination. Experiments were repeated in triplicate with three technical replicates per treatment and on different days. page 5: Figure S4. Growth inhibition of penta-O-galloyl-β-D-glucose against C. albicans not affected by additional ergosterol. C. albicans was treated with PGG or […] mL-1). After 24 hours, treatment groups were measured for growth inhibition. The data are plotted as mean % growth inhibition ± SD as compared to vehicle controls from three independent experiments . Dotted line represents 90% growth inhibition . S5 (1 picture or pasted object on this page, not shown here)
# mice = conditions: 20 mg/kg/day orally in mice; cited from earlier work
# HCT-116 cells = tested on: HCT-116 cells; set-up: method as in PMID 27196315, PMID 29778287; conditions: inhibition of proliferation; cited from earlier work
# Hek293 cells = test: CellTiter-Glo cell viability/proliferation (relative ATP); assay type: cell-based; conditions: Homo sapiens, HEK293, 24 h; read-out: IC50 (viable cell number reduced by 50%, relative ATP)
# Protocol: (§1) Hek293 cells were purchased from BEI Resources. HaCaT cells were purchased from ATCC. HepG2 cells were provided by Dr. Edward Morgan (Emory University). Mammalian cell cultures were maintained in Dulbecco’s modified Eagle’s medium with L-glutamine and 4.5 g L^–1 glucose (Corning) supplemented with 10% fetal bovine serum (Avantor) and a 100× combination solution of 10,000 IU mL^–1 penicillin and 10,000 μg mL^–1 streptomycin (Corning) at 37 °C, 5% CO2. Mammalian cultures at 70–80% confluency were used for cell viability and cytotoxicity experiments.
# (§2) ATP content as a marker for the relative viable cell number was measured with the CellTiter-Glo Luminescent Cell Viability assay (Promega Corporation). The mammalian culture was standardized at 4 × 10^3 cells per 100 μL in a Costar 3610 white plate, clear bottom 96-well plates (Corning). Cells were allowed to attach and incubate for 24 h before growth media was replaced with treatment media (PGG, 16–512 μg mL^–1) or an equivalent volume of DMSO, followed by incubation for 24 h. After incubation with treatment, plates were equilibrated to room temperature for 1 h, and then 100 μL of CellTiter-Glo reagent was added to each well and mixed for 2 min. Plates were allowed to incubate at room temperature for 10 min before luminosity was measured with an integration time of 1 s via a BioTek Cytation3 plate reader. The relative viable cell number was measured by comparing treatment samples to untreated controls. Experiments were repeated in triplicate with three technical replicates per treatment and on different days.
# HepG2 cells = test: as above; assay type: cell-based; conditions: Homo sapiens, HepG2, 24 h; read-out: IC50 (viable cell number reduced by 50%, relative ATP)
# Protocol: as §1, §2
# HaCaT cells = test: as above; assay type: cell-based; conditions: Homo sapiens, 24 h, read-out: IC50 (viable cell number, relative ATP)
# Protocol: as §1, §2
# [2] = tested on: Staphylococcus aureus (various strains); set-up: method as in doi:10.1016/j.foodchem.2010.04.072; conditions: antibacterial; possibly iron chelation; cited from earlier work
# [3] = tested on: Acinetobacter baumannii (various strains); set-up: method as in PMID 32948818; conditions: antibacterial; possibly iron chelation; cited from earlier work
# C. glabrata CDC325 = test: Iron supplementation growth inhibition assay; assay type: cell-based, Candida glabrata; conditions: 10 mM iron (II) or iron (III); PGG 4–16 μg mL^–1; 48 h
# Protocol: (§3) For iron supplementation assays, growth inhibition assays were performed by microbroth dilution following the guidelines set by the CLSI.[58] A solution of iron (II) sulfate and iron (III) sulfate (VWR) was dissolved in deionized water to a concentration of 10 mM and added to treated wells at the beginning of incubation. Growth inhibition was measured after 48 h. Percent growth inhibition was determined by comparing treatments to vehicle controls. Iron supplementation experiments were repeated in duplicate with three technical replicates per treatment and on different days.
# [4] = after oral administration in mice; cited from earlier work
# [5] = tested on: C. albicans wild type (CAF2-1) and cdr1Δ/Δ cdr2Δ/Δ mdr1Δ/Δ flu1Δ/Δ; test: microbe, parasite or virus in culture; assay type: cell-based, Candida albicans; conditions: for MIC90: Candida albicans, 72 h, RPMI-1640, 72 h, 30 °C, OD600
# Candida parapsilosis = test: Growth inhibition by CLSI microbroth dilution; assay type: cell-based; conditions: for IC50 / MIC: 48 h; for IC50: >50% growth inhibition; for MIC: >90% growth inhibition
# C. albicans [6] = test: Concentration-response matrixes (checkerboard assays); assay type: cell-based, Candida albicans; conditions: FICI at 90% growth inhibition, 48 h, 30 °C
# humans = conditions: balloon catheter, 3 mg/mL over 25 mL; cited from earlier work
# MDA-MB-231 = tested on: MDA-MB-231; set-up: method as in PMID 33707603; conditions: induction of apoptosis; cited from earlier work
# C. albicans 90028 = test: Iron supplementation growth inhibition assay; assay type: cell-based, Candida albicans; conditions: 10 mM iron (II) or iron (III); PGG 4–16 μg mL^–1; 48 h
# Protocol: as §3
# Candida albicans = test: Growth inhibition by CLSI microbroth dilution; assay type: cell-based; conditions: for MIC / IC50: Candida albicans, 48 h; for MIC: >90% growth inhibition
smiles,measurement,setting,value
"O=C(OC[C@H]1O[C@@H](OC(=O)c2cc(O)c(O)c(O)c2)[C@H](OC(=O)c2cc(O)c(O)c(O)c2)[C@@H](OC(=O)c2cc(O)c(O)c(O)c2)[C@@H]1OC(=O)c1cc(O)c(O)c(O)c1)c1cc(O)c(O)c(O)c1 [PGG, penta-O-galloyl-β-D-glucose]",Growth inhibitory activity with additional ergosterol,C. albicans [1],not affected
same,Tolerability,mice,tolerated without ill effects
same,IC50/EC50,HCT-116 cells,1.61 µM
same,IC50,Hek293 cells,64 µg/mL and 68 µM
same,IC50,HepG2 cells,68 µM and 64 µg/mL
same,IC50,HaCaT cells,32 µg/mL and 34 µM
same,IC50/EC50,[2],16 to 32 µg/mL
same,IC50/EC50,[3],16 to 64 µg/mL
same,Reduction of the growth inhibitory activity on iron supplementation,C. glabrata CDC325,80–100%
same,Detection in plasma,[4],could not be detected
same,MIC90,[5]; Wild type (CAF2-1),> 5 µg/mL
same,MIC90,[5]; cdr1Δ/Δ cdr2Δ/Δ mdr1Δ/Δ flu1Δ/Δ,> 5 µg/mL
same,"Effect of absence of major efflux pumps (CDR1, CDR2, FLU1, MDR1) on sensitivity",[5]; mutant versus wild type,did not modify sensitivity
same,IC50,Candida parapsilosis; strain AR Bank #0335,1 µg/mL
same,MIC,Candida parapsilosis; strain AR Bank #0335,4 µg/mL
same,IC50,Candida parapsilosis; strain AR Bank #0337,0.5 µg/mL
same,MIC,Candida parapsilosis; strain AR Bank #0337,0.5 µg/mL
same,IC50,Candida parapsilosis; strain AR Bank #0338,0.25 µg/mL
same,MIC,Candida parapsilosis; strain AR Bank #0338,0.5 µg/mL
same,IC50,Candida parapsilosis; strain AR Bank #0339,0.5 µg/mL
same,MIC,Candida parapsilosis; strain AR Bank #0339,1 µg/mL
same,MIC (range over strains),Candida parapsilosis; four strains of C. parapsilosis,0.5 to 4.0 μg mL^–1
same,Synergistic interaction with caspofungin,C. albicans [6]; C. albicans ATCC 90028,does not potentiate
same,Synergistic interaction with fluconazole,C. albicans [6]; azole-tolerant clinical isolate CaCi-2,does not potentiate
same,Safety in humans,humans,safely
same,IC50/EC50,MDA-MB-231,50.23 µM
same,Reduction of the growth inhibitory activity on iron supplementation,C. albicans 90028,80–100%
same,MIC,"Candida albicans; ATCC90028, strain ATCC 90028",1 µg/mL
same,IC50,"Candida albicans; ATCC90028, strain ATCC 90028, lowest concentration with >50% growth inhibition",0.5 µg/mL
same,IC50,"Candida albicans; strain MH12, >50% growth inhibition",0.25 µg/mL
same,MIC,Candida albicans; strain MH12,0.5 µg/mL
same,MIC (range over strains),Candida albicans; two strains of C. albicans,0.5 to 1.0 μg mL^–1
